Data as given in ChEMBL document CHEMBL4396910, “Endomorphin-2 analogs containing modified tyrosines: Biological and theoretical investigation of the influence on conformation and pharmacological profile” (Eur J Med Chem, 2019).

Key:
[1] = molecular target: Kappa-type opioid receptor (Homo sapiens, UniProt P41145); test: Displacement of [3H]U-69593 from human recombinant KOR expressed in CHO cell membranes incubated for 2 hrs by liquid scintillation counting method
[2] = n-Octanol/water partition coefficient, log P of compound at 50 ug at pH 7.4 measured after 2 mins by RP-HPLC analysis; assay type: physicochemical; conditions: pH 7.4, 2 min
[3] = Retention time of the compound by RP-HPLC analysis; assay type: physicochemical
Mu-type opioid receptor [4] = molecular target: T1, Mu-type opioid receptor (Homo sapiens, UniProt P35372); test: Agonist activity at human recombinant MOR expressed in CHO cells co-expressing C-terminally modified Galphaqi5 assessed as induction of calcium mobilization by Fluo-4AM dye-based fluorescence assay; assay type: functional, cell-based
[5] = molecular target: Delta-type opioid receptor (Homo sapiens, UniProt P41143); test: Displacement of [3H]deltrophin-2 from human recombinant DOR expressed in CHO cell membranes incubated for 2 hrs by liquid scintillation counting method
Mu-type opioid receptor [6] = molecular target: T1, Mu-type opioid receptor; test: Displacement of [3H]DAMGO from human recombinant MOR expressed in CHO cell membranes incubated for 2 hrs by liquid scintillation counting method
Mu-type opioid receptor [7] = molecular target: T1, Mu-type opioid receptor; test: Agonist activity at human recombinant MOR expressed in CHO cells co-expressing C-terminally modified Galphaqi5 assessed as induction of calcium mobilization by Fluo-4AM dye-based fluorescence assay relative to endomorphin-2; assay type: functional, cell-based
Mu-type opioid receptor [8] = molecular target: T1, Mu-type opioid receptor; test: Potency index, ratio of endomorphin Ki to compound Ki for human recombinant MOR expressed in CHO cell membranes using [3H]DAMGO by radioligand binding assay

Chain of Kappa-type opioid receptor (P41145 whole entry): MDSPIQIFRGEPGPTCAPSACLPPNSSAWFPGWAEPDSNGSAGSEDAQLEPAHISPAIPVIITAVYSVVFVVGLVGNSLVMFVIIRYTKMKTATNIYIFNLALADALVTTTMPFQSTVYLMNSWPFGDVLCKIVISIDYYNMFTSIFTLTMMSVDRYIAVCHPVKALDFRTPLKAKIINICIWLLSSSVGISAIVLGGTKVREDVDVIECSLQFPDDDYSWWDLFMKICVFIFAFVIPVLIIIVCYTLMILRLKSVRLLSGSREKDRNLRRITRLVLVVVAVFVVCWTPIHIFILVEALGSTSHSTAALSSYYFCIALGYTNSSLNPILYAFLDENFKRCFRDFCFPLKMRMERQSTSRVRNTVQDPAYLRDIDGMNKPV
Chain of Delta-type opioid receptor (P41143 whole entry): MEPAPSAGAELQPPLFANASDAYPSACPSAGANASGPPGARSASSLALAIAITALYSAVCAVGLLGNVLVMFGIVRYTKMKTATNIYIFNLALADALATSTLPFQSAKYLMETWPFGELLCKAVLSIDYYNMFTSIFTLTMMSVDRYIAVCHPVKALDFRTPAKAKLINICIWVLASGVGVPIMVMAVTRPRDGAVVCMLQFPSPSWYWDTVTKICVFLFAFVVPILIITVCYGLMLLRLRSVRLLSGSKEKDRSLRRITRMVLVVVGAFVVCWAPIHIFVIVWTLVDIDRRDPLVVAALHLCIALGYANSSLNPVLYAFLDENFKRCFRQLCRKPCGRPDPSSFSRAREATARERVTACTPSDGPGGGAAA
T1 sequence (P35372 whole entry): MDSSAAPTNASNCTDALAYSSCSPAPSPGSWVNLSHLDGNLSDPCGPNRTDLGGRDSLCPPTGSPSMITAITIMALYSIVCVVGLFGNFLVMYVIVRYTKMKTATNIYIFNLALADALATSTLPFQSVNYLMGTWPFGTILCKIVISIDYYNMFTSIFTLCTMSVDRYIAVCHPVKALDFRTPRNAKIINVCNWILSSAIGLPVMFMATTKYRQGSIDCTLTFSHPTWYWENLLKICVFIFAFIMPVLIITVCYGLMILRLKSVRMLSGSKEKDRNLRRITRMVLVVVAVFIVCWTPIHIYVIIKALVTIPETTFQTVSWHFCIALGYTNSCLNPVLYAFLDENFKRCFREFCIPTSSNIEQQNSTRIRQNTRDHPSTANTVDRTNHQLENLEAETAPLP

Structure (SMILES) | Ki [1] [nM] | logP [2] | Retention_time [3] | EC50 (Mu-type opioid receptor [4]) [nM] | Ki [5] [nM] | Ki (Mu-type opioid receptor [6]) [nM] | Intrinsic activity (Mu-type opioid receptor [7]) | Ratio Ki (Mu-type opioid receptor [8])
NC(=O)[C@H](Cc1ccccc1)NC(=O)[C@H](Cc1ccccc1)NC(=O)[C@@H]1CCCN1C(=O)[C@@H](N)Cc1cccc(O)c1 | 9150 | 1.37 | 15.168 min | 44.7 | 12700 | 18.9 | 0.87 | 
COc1cc(C[C@H](N)C(=O)N2CCC[C@H]2C(=O)N[C@@H](Cc2ccccc2)C(=O)N[C@@H](Cc2ccccc2)C(N)=O)cc(OC)c1O | 4480 | 0.67 | 14.83 min | 7.94 | 10600 | 4.38 | 1.1 | 
Cc1cc(O)cc(C)c1C[C@H](N)C(=O)N1CCC[C@H]1C(=O)N[C@@H](Cc1ccccc1)C(=O)N[C@@H](Cc1ccccc1)C(N)=O |  | 1.98 | 16.484 min | 1.66 | 283 | 0.81 | 0.91 | 4
NC(=O)[C@H](Cc1ccccc1)NC(=O)[C@H](Cc1ccccc1)NC(=O)[C@@H]1CCCN1C(=O)[C@@H](N)Cc1ccc(O)cc1 [ENDOMORPHIN 2] |  | 1.13 |  |  |  |  |  | 
Cc1cc(O)c(Cl)c(C)c1C[C@H](N)C(=O)N1CCC[C@H]1C(=O)N[C@@H](Cc1ccccc1)C(=O)N[C@@H](Cc1ccccc1)C(N)=O | 37.3 | 1.8 | 16.122 | 0.617 | 900 | 0.26 | 0.92 | 
Cc1cc(C[C@H](N)C(=O)N2CCC[C@H]2C(=O)N[C@@H](Cc2ccccc2)C(=O)N[C@@H](Cc2ccccc2)C(N)=O)cc(C)c1O | 4650 | 1.78 | 16.508 min | 9.55 | 5260 | 4.98 | 1.04 | 
